From PubChem BioAssay AID2060884 (Molecular Pharmacology Branch, DTP, NCI, 2025)

System: NCI-H929 complex spheroids, viability % test/control
Assay: Anticancer human tumor NCI-H929 cell line growth inhibition [RAS];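 note: compound exposure lasted seven days before viability was read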;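 for viability, T/C: 100% = DMSO vehicle control viability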
Details: for IC50: curve of first compound; for viability, T/C: stronger effect = lower value
Method in brief: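 Tumour cells grown as complex spheroids with HUVEC endothelial cells and mesenchymal stem cells, treated with RAS pathway inhibitor combinations. Each agent spans half-log steps from near clinical Cmax, or 10 microM where Cmax is unknown.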

[1] = second compound 0.000949 µM, first compound 0.0316 µM
[2] = second compound 0.000949 µM, first compound 0.1 µM
[3] = second compound 0.000949 µM, first compound 0.316 µM
[4] = second compound 0.000949 µM, first compound 1 µM
[5] = second compound 0.003 µM, first compound 0.0316 µM
[6] = second compound 0.003 µM, first compound 0.1 µM
[7] = second compound 0.003 µM, first compound 0.316 µM
[8] = second compound 0.003 µM, first compound 1 µM
[9] = second compound 0.00949 µM, first compound 0.0316 µM
[10] = second compound 0.00949 µM, first compound 0.1 µM
[11] = second compound 0.00949 µM, first compound 0.316 µM
[12] = second compound 0.00949 µM, first compound 1 µM
[13] = second compound 0.03 µM, first compound 0.0316 µM
[14] = second compound 0.03 µM, first compound 0.1 µM
[15] = second compound 0.03 µM, first compound 0.316 µM
[16] = second compound 0.03 µM, first compound 1 µM
[17] = second compound 0.0949 µM, first compound 0.0316 µM
[18] = second compound 0.0949 µM, first compound 0.1 µM
[19] = second compound 0.0949 µM, first compound 0.316 µM
[20] = second compound 0.0949 µM, first compound 1 µM
[21] = second compound 0.3 µM, first compound 0.0316 µM
[22] = second compound 0.3 µM, first compound 0.1 µM
[23] = second compound 0.3 µM, first compound 0.316 µM
[24] = second compound 0.3 µM, first compound 1 µM

With CC(=O)OC12COC1CC(O)C1(C)C(=O)C(O)C3=C(C)C(OC(=O)C(O)C(NC(=O)OC(C)(C)C)c4ccccc4)CC(O)(C(OC(=O)c4ccccc4)C21)C3(C)C (centres undefined) + CCn1c(-c2cccnc2C(C)OC)c2c3cc(ccc31)N1CCOC(CC(NC(=O)C(C(C)C)N(C)C(=O)C3(F)CCN(C(=O)C#CC(C)(C)N(C)C)CC3)C(=O)N3CCCC(N3)C(=O)OCC(C)(C)C2)C1 the IC50 (second compound 0.000949 µM) was < 31.6 nM, the IC50 (second compound 0.003 µM) was < 31.6 nM and the IC50 (second compound 0.00949 µM) was < 31.6 nM. For the same molecule, the IC50 (second compound 0.03 µM) was < 31.6 nM, the IC50 (second compound 0.0949 µM) was < 31.6 nM and the IC50 (second compound 0.3 µM) was < 31.6 nM. For the same molecule, the viability, T/C [1] was 0.74%, the viability, T/C [2] was 0.57% and the viability, T/C [3] was 0.52%. It also gave a viability, T/C [4] of 0.54%, a viability, T/C (second compound 0.000949 µM, first compound 3.16 µM) of 0.6% and a viability, T/C (second compound 0.000949 µM, first compound 10 µM) of 0.65%. The viability, T/C [5] was 0.76%, the viability, T/C [6] was 0.89% and the viability, T/C [7] was 0.7%. The viability, T/C [8] was 0.54%, the viability, T/C (second compound 0.003 µM, first compound 3.16 µM) was 0.6% and the viability, T/C (second compound 0.003 µM, first compound 10 µM) was 0.71%. The viability, T/C [9] was 0.76%, the viability, T/C [10] was 0.82% and the viability, T/C [11] was 0.62%. It also gave a viability, T/C [12] of 0.64%, a viability, T/C (second compound 0.00949 µM, first compound 3.16 µM) of 0.66% and a viability, T/C (second compound 0.00949 µM, first compound 10 µM) of 0.68%. The viability, T/C [13] was 0.73%, the viability, T/C [14] was 0.53% and the viability, T/C [15] was 0.75%. It also gave a viability, T/C [16] of 0.63%, a viability, T/C (second compound 0.03 µM, first compound 3.16 µM) of 0.5% and a viability, T/C (second compound 0.03 µM, first compound 10 µM) of 0.52%. For the same molecule, the viability, T/C [17] was 0.63%, the viability, T/C [18] was 0.57% and the viability, T/C [19] was 0.51%. It also gave a viability, T/C [20] of 0.63%, a viability, T/C (second compound 0.0949 µM, first compound 3.16 µM) of 0.58% and a viability, T/C (second compound 0.0949 µM, first compound 10 µM) of 0.72%. For the same molecule, the viability, T/C [21] was 0.63%, the viability, T/C [22] was 0.68% and the viability, T/C [23] was 0.63%. The viability, T/C [24] was 0.6%, the viability, T/C (second compound 0.3 µM, first compound 3.16 µM) was 0.65% and the viability, T/C (second compound 0.3 µM, first compound 10 µM) was 0.71%.
Molecule Nc1ccn(C2OC(CO)C(O)C2(F)F)c(=O)n1 (centres undefined) + CCn1c(-c2cccnc2C(C)OC)c2c3cc(ccc31)N1CCOC(CC(NC(=O)C(C(C)C)N(C)C(=O)C3(F)CCN(C(=O)C#CC(C)(C)N(C)C)CC3)C(=O)N3CCCC(N3)C(=O)OCC(C)(C)C2)C1 has an IC50 (second compound 0.000949 µM) of 6.16 nM, an IC50 (second compound 0.003 µM) of 6.22 nM and an IC50 (second compound 0.00949 µM) of 5.72 nM. The IC50 (second compound 0.03 µM) was 5.97 nM, the IC50 (second compound 0.0949 µM) was 5.49 nM and the IC50 (second compound 0.3 µM) was 5.79 nM. For the same molecule, the viability, T/C (second compound 0.000949 µM, first compound 0.00316 µM) was 105%, the viability, T/C (second compound 0.000949 µM, first compound 0.01 µM) was 10.1% and the viability, T/C [1] was 0.99%. The viability, T/C [2] was 0.68%, the viability, T/C [3] was 0.75% and the viability, T/C [4] was 0.74%. For the same molecule, the viability, T/C (second compound 0.003 µM, first compound 0.00316 µM) was 103%, the viability, T/C (second compound 0.003 µM, first compound 0.01 µM) was 12.8% and the viability, T/C [5] was 0.86%. The viability, T/C [6] was 0.83%, the viability, T/C [7] was 0.91% and the viability, T/C [8] was 0.96%. The viability, T/C (second compound 0.00949 µM, first compound 0.00316 µM) was 96.3%, the viability, T/C (second compound 0.00949 µM, first compound 0.01 µM) was 6.3% and the viability, T/C [9] was 1.25%. The viability, T/C [10] was 0.77%, the viability, T/C [11] was 0.75% and the viability, T/C [12] was 0.72%. The viability, T/C (second compound 0.03 µM, first compound 0.00316 µM) was 99.8%, the viability, T/C (second compound 0.03 µM, first compound 0.01 µM) was 9.61% and the viability, T/C [13] was 1.21%. The viability, T/C [14] was 0.91%, the viability, T/C [15] was 0.88% and the viability, T/C [16] was 0.89%. For the same molecule, the viability, T/C (second compound 0.0949 µM, first compound 0.00316 µM) was 92.5%, the viability, T/C (second compound 0.0949 µM, first compound 0.01 µM) was 3.76% and the viability, T/C [17] was 1.08%. The viability, T/C [18] was 0.91%, the viability, T/C [19] was 0.76% and the viability, T/C [20] was 0.75%. For the same molecule, the viability, T/C (second compound 0.3 µM, first compound 0.00316 µM) was 103%, the viability, T/C (second compound 0.3 µM, first compound 0.01 µM) was 2.46% and the viability, T/C [21] was 1.01%. For the same molecule, the viability, T/C [22] was 0.96%, the viability, T/C [23] was 0.99% and the viability, T/C [24] was 0.8%.
